Laboratory results taken from patent US20260374739A1, “SMALL MOLECULAR WEIGHT CHEMICAL COMPOUND TO ANTAGONIZE EPH-EPHRIN TETRAMERIZATION AND INHIBIT BIDIRECTIONAL SIGNALING” (THE BOARD OF REGENTS OF THE UNIVERSITY OF TEXAS SYSTEM, priority 2022, published 2026).
Where “and” joins values, the source holds several entries; their conditions need not be identical. Equal entries are not always repeated. Entries after “also recorded” stand apart in the source; their conditions may differ. Where two headings read alike, the source gives them in different places.

Target: T1, EphB1-EphrinB2 (Rattus norvegicus, UniProt P09759)
T1 construct: rat EphB1-Fc residues 18-538; mouse EB2-His residues 18-232; purchased R&D Systems (EphB1-Fc); Sino Biologicals (EB2-His)
T1 sequence (P09759 18-538): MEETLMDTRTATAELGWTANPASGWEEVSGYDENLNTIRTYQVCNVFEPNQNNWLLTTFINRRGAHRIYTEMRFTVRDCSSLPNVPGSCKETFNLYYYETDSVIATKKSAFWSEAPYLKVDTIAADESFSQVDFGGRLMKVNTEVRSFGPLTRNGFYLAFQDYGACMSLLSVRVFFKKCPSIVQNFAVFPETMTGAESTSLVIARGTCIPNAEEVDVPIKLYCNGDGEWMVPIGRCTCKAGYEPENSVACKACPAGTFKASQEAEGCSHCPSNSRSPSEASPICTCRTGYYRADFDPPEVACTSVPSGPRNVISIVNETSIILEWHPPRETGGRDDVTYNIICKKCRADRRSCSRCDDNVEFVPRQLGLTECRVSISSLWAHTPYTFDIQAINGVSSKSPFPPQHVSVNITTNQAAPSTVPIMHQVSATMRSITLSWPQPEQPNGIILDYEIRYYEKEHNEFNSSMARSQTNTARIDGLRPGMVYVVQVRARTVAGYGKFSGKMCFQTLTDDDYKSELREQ
Assay: Octet RED384, immobilized rat EphB1-Fc binding to 30 nM mouse EB2-His (400 sec / 500 sec)
Design: species or system mouse EphrinB2
Procedure: FIGS. 9A-9B depict Octet RED384 kinetic analysis sensorgram data of 30 nM soluble mouse EphrinB2 (mEB2-His) protein binding to sensorchip immobilized rat EphB1-Fc (FIG. 9A) or mouse EphB4-Fc (FIG. 9B) protein and effect of increased concentration of A20. Association time was for 400 sec and dissociation time was for 500 sec. Binding assays were conducted in PBS containing 0.05% Tween-20 and 1% DMSO.
The experiments described above involve measurements following long-term incubation of proteins with compound and thus represent information after interaction homeostasis has been achieved (FIG. 5A, FIG. 5B, FIG. 5C, and FIG. 5D) or after complexes are extensively washed (ELISAs and pulldowns, FIG. 8). To further analyze biophysical activity of A20 in real-time, kinetic studies were performed using an Octet® RED384 system to visualize the effect of compound on EphB1-EB2 protein-protein binding dynamics. In these experiments, EphB1-Fc ectodomain protein was first sparsely immobilized onto a set of Octet biosensors, […], 1, 10, or 100 μM A20 for a 400 sec association step followed by exposure to buffer only for a 500 sec dissociation step. […] The sensorgram provides various data of the binding kinetics, such as on rates (kon), off rates (koff), and equilibrium dissociation constant (KD). […] Specifically, EphB2 forms a dimer with EphrinB2, and that two dimers then assemble together into a circular tetramer structure (see FIG. 10 and Himanen J P, Rajashankar K R, Lackmann M, Cowan C A, Henkemeyer M, and Nikolov DB. (2001). Crystal structure of an Eph receptor-ephrin complex. Nature 414:933-8, which is incorporated herein by reference in its entirety).
The distinct dimerization and tetramerization interfaces are indicated. Circular tetramers further cluster together to pack in the crystal via additional ligand-ligand (red arrow) and receptor-receptor (blue arrow) interfaces. Many studies by multiple groups show the circular tetramer and tetramer clusters are observed in vivo and that they are needed in order to form the active complex necessary for the transduction of Eph-Ephrin bidirectional signals. […] A variety of methods can be used to compare the different sensorgrams obtained from a dose-dependent run of a drug compound to quantify its LA activity and obtain IC50 information. Single time points in the assay can be picked and response signals obtained at the different compound doses can be compared, such as at 380 sec near the end of the association step or at 100 sec after start of the dissociation step.
Antagonists are classified as either competitive/reversible or irreversible, depending on how the particular inhibitor interacts with its protein targets. A reversible antagonist will bind receptor protein via non-covalent intermolecular forces, and it will eventually dissociate from the receptor, freeing the protein to bind either another antagonist chemical in the solution or its bona-fide ligand protein. […] A competitive antagonist is thought to bind to receptor protein at the same binding site/interface as the endogenous ligand (aka Ephrin), but without activating the receptor. Ligand and antagonist will thus compete for the same binding site on the receptor; when antagonist is bound to receptor it will prevent ligand binding and increasing concentrations of an antagonist will displace in a dose-dependent fashion the ability of ligand from binding the receptor. Since, most receptor antagonists participate in a reversible, non-covalent, competitive type of interaction, two Octet experiments were conducted to determine if this was indeed the mode of action of A20. To determine if A20 is a reversible inhibitor/antagonist, rEphB1-Fc was first immobilized onto sensor chips, then pre-exposed to 100 μM A20, then washed to remove A20, and after baseline measurements then tested for binding to 30 nM soluble mEB2-His protein. […]

[1] = Relative Dissociation IC50, rEphB1-mEphrinB2, immobilized rat EphB1, 50 nM soluble mouse EphrinB2, dissociation, relative
[2] = rEphB1-mEphrinB2, immobilized rat EphB1, 50 nM soluble mouse EphrinB2, association, absolute, read-out: Absolute Association IC50
[3] = rEphB1-mEphrinB2, immobilized rat EphB1, 50 nM soluble mouse EphrinB2, association, relative, read-out: Relative Association IC50
[4] = EphB1-EB2, AUC, read-out: IC50 (area under the curve)
[5] = Absolute Dissociation IC50, rEphB1-mEphrinB2, immobilized rat EphB1, 50 nM soluble mouse EphrinB2, dissociation, absolute
[6] = rEphB1-mEphrinB2, immobilized rat EphB1, 50 nM soluble mouse EphrinB2, dissociation, absolute, read-out: Absolute Dissociation IC50

Row | SMILES | IC50 [1] [µM] | IC50 [2] | IC50 [3] | IC50 [4] [µM] | mode of antagonism (reversibility 100 μM pre-exposure, competition 0.1-1000 nM EB2, listed as A20) | IC50 [5] [µM] | IC50 [6] | IC50 (rEphB1-mEphrinB2, immobilized rat EphB1, 50 nM soluble mouse EphrinB2, dissociation, relative, read-out: Relative Dissociation IC50) | IC50 (100 sec dissociation, read-out: IC50 (response at 100 sec after dissociation step)) [µM] | IC50 (380 sec association, read-out: IC50 (response at 380 sec after association)) [µM] | antagonist activity of salt vs free-base (fold better than free-base)
1 | O=S1(=O)CCN(Cc2ccc(O)c3ncccc23)CC1 [Compound 15, 4-((8-hydroxyquinolin-1-ium-5-yl)methyl)thiomorpholin-4-ium 1,1-dioxide chloride] | 0.9 | 100 µM | 100 µM |  |  |  |  |  |  |  | 
2 | Oc1c(Br)cc(CN2CCOCC2)c2cccnc12 [Compound 5, 7-bromo-5-(morpholinomethyl)quinolin-8-ol] |  |  |  | 9.33 | compound acts as a reversible inhibitor; also recorded: compound is a competitive inhibitor of EphB1-EB2 binding |  |  |  |  |  | 
3 | Oc1c(Cl)cc(CN2CCOCC2)c2cccnc12 [Compound 4, 4-((7-chloro-8-hydroxyquinolin-1-ium-5-yl)methyl)morpholin-4-ium chloride] | 0.64 | 14.2 µM | 0.93 µM |  |  | 0.83 |  |  |  |  | 
4 | Oc1c(I)cc(CN2CCOCC2)c2cccnc12 [Compound 8, 4-((8-hydroxy-7-iodoquinolin-1-ium-5-yl)methyl)morpholin-4-ium chloride] |  | > 1.6 µM and 100 µM | 0.28 µM and 0.53 µM |  |  |  | 0.71 µM and 0.51 µM | 0.51 µM and 0.45 µM |  |  | 
5 | Oc1c(Br)cc(CN2CCOCC2)c2cccnc12 [Compound 6, 4-((7-bromo-8-hydroxyquinolin-1-ium-5-yl)methyl)morpholin-4-ium chloride] |  | 28.4 µM | 0.74 µM | 3.63 |  |  |  |  | 2.4 | 3.09 | 2-3 fold
6 | O=[N+]([O-])c1cc(CN2CCOCC2)c2cccnc2c1O [Compound 10, 4-((8-hydroxy-7-nitroquinolin-1-ium-5-yl)methyl)morpholin-4-ium chloride] | 1.99 | 99 µM | 5.39 µM |  |  | 2.48 |  |  |  |  | 
7 | Oc1ccc(CN2CCN(Cc3ccc(C(F)(F)F)cc3)CC2)c2cccnc12 [Compound 48, 5-((4-(4-(trifluoromethyl)benzyl)piperazin-1-yl)methyl)quinolin-8-ol] | 2.37 | 100 µM | > 10 µM |  |  | 15.1 |  |  |  |  | 
8 | Oc1ccc(CN2CCOCC2)c2cccnc12 [Compound 1, 5-(morpholinomethyl)quinolin-8-ol] | 3.29 | 100 µM | 100 µM |  |  |  | 100 µM |  |  |  | 
